The Kinase Knowledgebase extract (Sharma et al. 2016)
pIC50: −log10 of the molar value.

Legend:
EGFR (human) [1] = molecular target: EGFR (human) (UniProt P00533); conditions: kb
EGFR (human) [2] = molecular target: EGFR (human) (UniProt P00533)

EGFR (human), sequence (P00533 whole entry, looked up): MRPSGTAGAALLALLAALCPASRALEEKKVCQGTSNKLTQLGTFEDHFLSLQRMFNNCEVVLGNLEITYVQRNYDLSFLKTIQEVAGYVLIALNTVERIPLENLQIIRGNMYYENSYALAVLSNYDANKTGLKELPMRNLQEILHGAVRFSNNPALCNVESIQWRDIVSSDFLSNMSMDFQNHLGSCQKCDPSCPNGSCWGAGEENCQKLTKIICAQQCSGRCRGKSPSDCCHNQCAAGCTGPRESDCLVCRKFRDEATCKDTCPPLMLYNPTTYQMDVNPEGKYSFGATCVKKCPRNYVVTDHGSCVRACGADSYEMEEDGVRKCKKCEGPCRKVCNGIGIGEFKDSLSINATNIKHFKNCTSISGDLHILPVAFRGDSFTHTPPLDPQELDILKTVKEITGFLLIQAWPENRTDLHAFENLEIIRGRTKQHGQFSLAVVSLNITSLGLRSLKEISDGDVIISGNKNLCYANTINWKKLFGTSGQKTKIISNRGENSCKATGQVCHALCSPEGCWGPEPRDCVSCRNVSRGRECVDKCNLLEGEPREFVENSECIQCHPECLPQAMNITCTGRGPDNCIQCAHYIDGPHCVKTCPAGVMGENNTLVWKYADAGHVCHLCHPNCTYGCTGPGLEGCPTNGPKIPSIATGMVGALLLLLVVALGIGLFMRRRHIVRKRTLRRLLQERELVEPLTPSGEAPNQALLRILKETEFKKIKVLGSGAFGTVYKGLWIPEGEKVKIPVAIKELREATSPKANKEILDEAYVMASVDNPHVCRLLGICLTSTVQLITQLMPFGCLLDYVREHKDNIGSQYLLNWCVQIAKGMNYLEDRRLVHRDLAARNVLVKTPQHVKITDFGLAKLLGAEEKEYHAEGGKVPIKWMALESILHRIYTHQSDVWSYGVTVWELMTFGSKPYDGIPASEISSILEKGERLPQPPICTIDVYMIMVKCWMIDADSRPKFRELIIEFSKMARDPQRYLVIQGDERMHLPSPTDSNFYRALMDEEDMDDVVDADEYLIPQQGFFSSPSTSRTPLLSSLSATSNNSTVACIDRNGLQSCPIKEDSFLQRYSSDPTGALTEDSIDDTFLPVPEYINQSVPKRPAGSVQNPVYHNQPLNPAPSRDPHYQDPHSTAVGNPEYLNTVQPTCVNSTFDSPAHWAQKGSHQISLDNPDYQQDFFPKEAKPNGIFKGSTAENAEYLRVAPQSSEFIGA

SMILES | pIC50 (EGFR (human) [1]) | pIC50 (EGFR (human) [2])
COc1cc2ncnc(Nc3cccc(Cl)c3F)c2cc1OC1CCN(C(=O)c2ccno2)CC1 | 7.77 | 
COc1cc2ncnc(Nc3cccc(Cl)c3F)c2cc1O[C@H]1C[C@H](C(=O)NCCNC(C)=O)N(C)C1 | 9.84 | 11.10
COc1cc2ncnc(Nc3cccc(Cl)c3F)c2cc1O[C@@H]1C[C@@H](C(=O)NCCC#N)N(C)C1 | 10.20 | 10.92
COc1cc2c(Nc3cccc(Cl)c3F)ncnc2cc1OC1CCN(C(=O)c2cccnc2)CC1 | 7.06 | 
COc1cc2ncnc(Nc3cccc(Cl)c3F)c2cc1O[C@@H]1CCCN(C(=O)Cc2cccs2)C1 | 7.52 | 
COc1cc2ncnc(Nc3cccc(Cl)c3F)c2cc1OC1CCN(C(=O)Nc2c(C)noc2C)CC1 | 7.77 | 
COc1cc2c(Nc3cccc(Cl)c3F)ncnc2cc1OC1CCN(C(=O)Cc2cc(C)no2)CC1 | 7.33 | 
COc1cc2ncnc(Nc3cccc(Cl)c3F)c2cc1O[C@H]1C[C@H](C(=O)N[C@H]2COC[C@@H]2O)N(C)C1 | 9.86 | 11.00
COc1cc2ncnc(Nc3cccc(Cl)c3F)c2cc1OC1CCN(C(=O)c2ccccn2)CC1 | 7.80 | 
